The test has as its target T1, Kinesin-like protein KIF18A (Homo sapiens, UniProt Q8NI77).
T1 sequence (Q8NI77 whole entry): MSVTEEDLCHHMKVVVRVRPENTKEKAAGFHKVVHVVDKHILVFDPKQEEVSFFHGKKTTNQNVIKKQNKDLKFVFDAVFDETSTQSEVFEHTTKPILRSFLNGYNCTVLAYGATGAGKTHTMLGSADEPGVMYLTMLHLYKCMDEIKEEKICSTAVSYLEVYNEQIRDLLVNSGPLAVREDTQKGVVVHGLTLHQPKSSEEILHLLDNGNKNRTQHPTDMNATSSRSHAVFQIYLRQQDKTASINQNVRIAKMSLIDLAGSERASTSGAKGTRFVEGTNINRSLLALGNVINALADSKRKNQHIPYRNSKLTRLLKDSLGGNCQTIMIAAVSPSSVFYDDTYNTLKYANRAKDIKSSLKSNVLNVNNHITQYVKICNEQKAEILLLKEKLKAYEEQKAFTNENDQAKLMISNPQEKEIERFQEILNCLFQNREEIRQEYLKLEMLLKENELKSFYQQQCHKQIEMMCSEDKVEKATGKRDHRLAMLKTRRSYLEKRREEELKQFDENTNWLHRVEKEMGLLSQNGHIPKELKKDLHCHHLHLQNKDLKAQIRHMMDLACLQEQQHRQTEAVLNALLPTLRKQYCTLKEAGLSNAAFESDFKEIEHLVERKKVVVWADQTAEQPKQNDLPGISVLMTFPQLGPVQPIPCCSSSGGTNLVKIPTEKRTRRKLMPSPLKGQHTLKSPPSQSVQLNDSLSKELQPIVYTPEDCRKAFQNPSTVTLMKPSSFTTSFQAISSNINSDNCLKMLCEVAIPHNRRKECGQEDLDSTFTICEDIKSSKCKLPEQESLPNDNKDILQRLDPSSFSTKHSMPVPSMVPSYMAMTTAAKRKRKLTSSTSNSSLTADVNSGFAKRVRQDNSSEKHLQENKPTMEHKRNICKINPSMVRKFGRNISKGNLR
Kind of test: Assay of the Inhibitory Effects on KIF18A Activity In Vitro (ADP-Glo Assay). As to the method: Experimental Method 1. Preparation of 30 mL of reaction buffer: (1) 450 μL 1M Tris-HCl (pH=7.5)+300 μL 1M MgCl2+30 μL 10% Pluronic F-68 (ThermoFisher, 24040032-100 ml); (2) adjusting pH to 7.5, and adding water to adjust the volume to 30 mL. 2. Preparation of a 5 mg/mL pig microtubule (Microtubules; MT) (Cytoskeleton Inc, MT002) stock solution: (1) 10 mL PM buffer=150 μL 1 M PIPES (pH 7.0)+20 μL 0.5 mM MgCl2+100 μL 2 mM Taxol (Cytoskeleton Inc, TXD01)+9730 μL water. (2) MT (500 ag/tube): Adding 100 μL PM buffer to prepare a 5 mg/mL stock solution. Keeping the MT (Cytoskeleton Inc, MT002) at room temperature for 10-15 minutes, gently mixing and storing same at −80° C. 3. Preparation of 2 mL of kinase buffer: 2 mL reaction buffer+1 μL 2 mM Taxol (Cytoskeleton Inc, TXD01)+12 μL 5 mg/mL MT (Cytoskeleton Inc, MT002). 4. Preparation of 2×KIF18A (30 nM) (ChemPartner, CPB-P22-31645) working solution: 2.4 μL 10 μM KIF18A (ChemPartner, CPB-P22-31645)+800 μL 1× kinase buffer. 5. Preparation of 2×ATP (150 μM) (Promega, G9101) working solution: 12 μL 10 mM ATP+800 μL 1× kinase buffer. 6. 25 nL of compound was transferred to a 384-well plate using Echo650. 7. 2.5 μL of 2×KIF18A from Step 4 (final concentration of 30 nM) was added to the 384-well plate and the plate was incubated at 25° C. for 15 minutes. 8. 2.5 μL of 2×ATP from Step 5 (final concentration of 150 μM) was added to the 384-well plate and the plate was incubated at 25° C. for 15 minutes. 9. 5 μL ADP-Glo™ Reagent (Promega, G9101) was added to the 384-well plate and the plate was incubated at 25° C. for 40 minutes. 10. 10 μL of kinase detection reagent (Promega, G9101) was added to the 384-well plate and the plate was incubated at 25° C. for 40 minutes. 11. Luminescence values were measured using the EnVision Xcite Multilabel Reader (PerkinElmer, 2105-0020).
For `Nc1ccc(S(=O)(=O)Nc2ccc(C(=O)Nc3ccnc4c3CCN4CC3CC3)c(N3CCC4(CC3)CC4)c2)c(CCO)c1` [US20260070887, Example 32], the IC50 entry was “in the range around 275 nM”.

The compound `Nc1ccc(S(=O)(=O)Nc2ccc(C(=O)Nc3ccnc4c3ccn4CC3CC3)c(N3CCC4(CC3)CC4)c2)c(CCO)c1` [US20260070887, Example 33] showed a half-maximal inhibitory concentration (IC50) of less than 50 nM.

Regarding `COc1ccc(C(=O)Nc2cccc3c2ccn3CC2CC2)c(N2CCC3(CC2)CC3)c1` [US20260070887, Example 127], the concentration for half-maximal inhibition (IC50) was less than 50 nM.

Turning to `COc1ccc(NC(=O)c2ccc(NS(=O)(=O)CCO)cc2N2CCC3(CC2)CC3)c2cc3n(c12)CCOC3` [US20260070887, Example 404], the half-inhibitory concentration (IC50) is less than 50 nM.

With `COC1c2cc3c(NC(=O)c4ccc(NS(=O)(=O)CCO)cc4N4CCC(=C(F)F)CC4)ccc(C#N)c3n2CCC1(F)F` (centres undefined) [US20260070887, Example 427], the IC50 is less than 50 nM.

Turning to `CC1(C)Cn2c(cc3c(NC(=O)c4cnc(NS(=O)(=O)CCO)cc4N4CCC5(CC4)CC5)cccc32)CO1` [US20260070887, Example 454], the half-inhibitory concentration (IC50) is less than 50 nM.

`COc1ccc(NC(=O)c2ccc(NS(=O)(=O)CCO)cc2N2CCC3(CC2)CC3)c2cc3n(c12)CCC(F)(F)C3` [US20260070887, Example 478] registered a half-inhibitory concentration (IC50) of less than 50 nM.

`CC1(C)Cn2c(cc3c(NC(=O)c4ccc(NS(=O)(=O)c5ccc(N)cc5CCO)cc4N4CCC5(CC4)CC5)ccc(F)c32)CO1` [US20260070887, Example 519]: the IC50 entry was “in the range around 275 nM”.

In turn, `CC1(C)Cn2c(cc3c(NC(=O)c4ccc(NS(=O)(=O)CCO)cc4N4CCC(=C(F)F)CC4)ccc(Cl)c32)CO1` [US20260070887, Example 522] returned an IC50 of less than 50 nM.
